The supplement of paper PMC10307832

Columns and labels:
Assay in all cases: relative viability (nuclei count vs DMSO), 5 days (fraction); higher = more cells survive
Etoposide + Pictilisib = compound: COc1cc([C@@H]2c3cc4c(cc3[C@@H](O[C@@H]3O[C@@H]5CO[C@@H](C)O[C@H]5[C@H](O)[C@H]3O)[C@H]3COC(=O)[C@H]23)OCO4)cc(OC)c1O [Etoposide] + CS(=O)(=O)N1CCN(Cc2cc3nc(-c4cccc5[nH]ncc45)nc(N4CCOCC4)c3s2)CC1 [Pictilisib] (partner 1 µM)
How it was run: (§1)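 Relative viability was taken as the ratio of nuclei in treated wells to nuclei in vehicle wells. Lung cancer cell lines in 1536-well plates received compounds by pin tool one day after seeding, either one drug alone or a fixed anchor-drug dose plus five library-drug doses (not always all listed) in √10 steps. Nuclei were counted on 4× images after 5 days of treatment, and values are medians of duplicate plates.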

Etoposide + Dasatinib = compound: COc1cc([C@@H]2c3cc4c(cc3[C@@H](O[C@@H]3O[C@@H]5CO[C@@H](C)O[C@H]5[C@H](O)[C@H]3O)[C@H]3COC(=O)[C@H]23)OCO4)cc(OC)c1O [Etoposide] + Cc1nc(Nc2ncc(C(=O)Nc3c(C)cccc3Cl)s2)cc(N2CCN(CCO)CC2)n1 [Dasatinib] (partner 0.075 µM)
How it was run: as §1

Etoposide + Navitoclax = compound: COc1cc([C@@H]2c3cc4c(cc3[C@@H](O[C@@H]3O[C@@H]5CO[C@@H](C)O[C@H]5[C@H](O)[C@H]3O)[C@H]3COC(=O)[C@H]23)OCO4)cc(OC)c1O [Etoposide] + CC1(C)CCC(c2ccc(Cl)cc2)=C(CN2CCN(c3ccc(C(=O)NS(=O)(=O)c4ccc(N[C@H](CCN5CCOCC5)CSc5ccccc5)c(S(=O)(=O)C(F)(F)F)c4)cc3)CC2)C1 [Navitoclax] (partner 0.5 µM)
How it was run: as §1

Bleomycin + Palbociclib = compound: CC1=C(N=C(N=C1N)[C@H](CC(=O)N)NC[C@@H](C(=O)N)N)C(=O)N[C@@H]([C@H](C2=CN=CN2)OC3C(C(C(C(O3)CO)O)O)OC4C(C(C(C(O4)CO)O)OC(=O)N)O)C(=O)N[C@H](C)[C@H]([C@H](C)C(=O)N[C@@H]([C@@H](C)O)C(=O)NCCC5=NC(=CS5)C6=NC(=CS6)C(=O)NCCC[S+](C)C)O [Bleomycin] + CC(=O)c1c(C)c2cnc(Nc3ccc(N4CCNCC4)cn3)nc2n(C2CCCC2)c1=O [Palbociclib] (partner 0.5 µM); details: main component drawn
How it was run: as §1

UMC-11
relative viability (Etoposide + Pictilisib; first compound 0.01 µM): 0.837
relative viability (Etoposide + Pictilisib; first compound 0.03162 µM): 0.938
relative viability (Etoposide + Pictilisib; first compound 0.3162 µM): 0.339
relative viability (Etoposide + Pictilisib; first compound 1 µM): 0.194
relative viability (Etoposide + Dasatinib; first compound 0.01 µM): 0.455
relative viability (Etoposide + Dasatinib; first compound 0.03162 µM): 0.38
relative viability (Etoposide + Dasatinib; first compound 0.1 µM): 0.316
relative viability (Etoposide + Dasatinib; first compound 0.3162 µM): 0.38
relative viability (Etoposide + Dasatinib; first compound 1 µM): 0.259
relative viability (Etoposide + Navitoclax; first compound 0.01 µM): 0.344
relative viability (Etoposide + Navitoclax; first compound 0.03162 µM): 0.307
relative viability (Etoposide + Navitoclax; first compound 0.3162 µM): 0.193
relative viability (Etoposide + Navitoclax; first compound 1 µM): 0.155
relative viability (Bleomycin + Palbociclib; first compound 0.01 µM): 0.311
relative viability (Bleomycin + Palbociclib; first compound 0.03162 µM): 0.334
relative viability (Bleomycin + Palbociclib; first compound 0.1 µM): 0.355
relative viability (Bleomycin + Palbociclib; first compound 0.3162 µM): 0.313
relative viability (Bleomycin + Palbociclib; first compound 1 µM): 0.263
